This is an account of results in publication PMC5152921, “Evolutionary and Functional Diversification of the Vitamin D Receptor-Lithocholic Acid Partnership” (PLoS ONE, 2016).

Common to all, as to experiment: Competitive ligand binding assay ([3H]-1,25D3 displacement)
What all share (details): lysate with VDR and human RXRWT; 4 nM [3H]-1,25D3; 18 hours at 4°C; Cheng-Prusoff; mean ± SEM

One assay has as its target T1, Bichir VDR (Polypterus senegalus, UniProt A0A088GJ14).
T1 sequence (A0A088GJ14 1-421): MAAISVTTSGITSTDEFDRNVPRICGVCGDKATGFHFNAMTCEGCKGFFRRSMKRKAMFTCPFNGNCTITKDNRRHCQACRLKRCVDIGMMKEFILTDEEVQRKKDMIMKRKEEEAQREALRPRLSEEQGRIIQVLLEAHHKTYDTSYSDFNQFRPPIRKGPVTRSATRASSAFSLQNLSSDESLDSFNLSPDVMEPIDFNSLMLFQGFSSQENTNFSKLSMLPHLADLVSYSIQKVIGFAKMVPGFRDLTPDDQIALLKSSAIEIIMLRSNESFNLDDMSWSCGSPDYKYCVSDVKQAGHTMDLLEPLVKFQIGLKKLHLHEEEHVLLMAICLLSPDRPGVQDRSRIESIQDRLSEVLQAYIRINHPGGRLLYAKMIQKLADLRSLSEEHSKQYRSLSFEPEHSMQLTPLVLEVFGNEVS
T1 sequence (P19793 1-462 partner): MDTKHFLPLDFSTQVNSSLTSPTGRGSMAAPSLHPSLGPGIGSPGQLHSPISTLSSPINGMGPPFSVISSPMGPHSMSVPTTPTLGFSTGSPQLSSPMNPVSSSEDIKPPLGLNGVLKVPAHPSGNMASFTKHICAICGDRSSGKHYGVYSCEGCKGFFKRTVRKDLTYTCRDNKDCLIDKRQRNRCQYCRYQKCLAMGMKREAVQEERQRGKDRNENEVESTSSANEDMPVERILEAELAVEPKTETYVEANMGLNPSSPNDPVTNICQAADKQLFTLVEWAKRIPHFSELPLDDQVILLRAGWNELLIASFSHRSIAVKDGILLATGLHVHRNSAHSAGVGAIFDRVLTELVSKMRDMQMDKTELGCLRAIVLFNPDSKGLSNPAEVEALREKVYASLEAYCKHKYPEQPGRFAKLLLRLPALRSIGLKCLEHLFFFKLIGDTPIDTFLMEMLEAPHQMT
On the procedure: (§1) Recombinant VDR and human RXRWT lysates were prepared from transfected COS7 cells (American Type Culture Collection #CRL-1651) as described in detail previously. Lysates were diluted 10-fold in ice-cold assay buffer (10 mM Tris HCl, 150 mM KCl, 1 mM EDTA, 0.3 mM ZnCl2, 5 mM DTT, and 1x protease inhibitor cocktail (100 μM AEBSF, 80 nM aprotinin, 5 μM bestatin, 1.5 μM E-64 (for cysteine proteases), 2 μM leupeptin, 1 μM pepstatin A), pH 7.5). […] Reactions were shaken to mix and incubated for 18 hours at 4°C. Bound and free ligand were separated with the addition of 80 μL of ice-cold separation buffer (2.5% (w/v) activated charcoal, 0.5% (w/v) dextran, 100 mM Na2HPO4, 39 mM NaH2PO4, 150 mM NaCl, 15 mM NaN3, 10% gelatin, pH 7.0), and incubated at 4°C for 15 minutes with shaking every 5 minutes. Reactions were centrifuged at 5,000 x g for 5 minutes at 4°C, and 200 μL of the supernatant containing the VDR-bound ligands was removed for scintillation counting.
(§2) Total binding was determined using lysate from cells transfected with VDR, and nonspecific binding was determined using lysate from cells transfected with the empty pSG5 vector. Specific binding was determined by subtracting non-specific binding counts from the total binding counts.

The target in another assay is T2, Zebrafish VDRα (Danio rerio, UniProt Q9PTN2).
T2 construct: 89.7 ng/well of full-length pSG5-VDR was co-transfected; expressed in transfected cells; host or cells: COS7
T2 sequence (Q9PTN2 1-453): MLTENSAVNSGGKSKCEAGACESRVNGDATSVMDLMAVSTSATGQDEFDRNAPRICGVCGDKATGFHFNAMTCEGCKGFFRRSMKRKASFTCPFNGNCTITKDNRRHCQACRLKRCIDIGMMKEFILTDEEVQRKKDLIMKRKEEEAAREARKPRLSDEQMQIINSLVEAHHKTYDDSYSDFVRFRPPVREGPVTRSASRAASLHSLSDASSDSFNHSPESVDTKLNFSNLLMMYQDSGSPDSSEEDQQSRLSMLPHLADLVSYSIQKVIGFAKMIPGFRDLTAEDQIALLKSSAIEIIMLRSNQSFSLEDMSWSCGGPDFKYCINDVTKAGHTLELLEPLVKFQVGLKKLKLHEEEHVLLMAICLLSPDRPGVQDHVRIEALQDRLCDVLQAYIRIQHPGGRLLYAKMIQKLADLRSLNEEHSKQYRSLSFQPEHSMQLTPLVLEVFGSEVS
T2 sequence (P19793 1-462 partner): T1 sequence (P19793 1-462 partner)
As for the experimental part:
as §1, §2

In a further assay the target is T3, Medaka VDRβ (Oryzias latipes, UniProt B2CCA1).
T3 sequence (B2CCA1 1-425): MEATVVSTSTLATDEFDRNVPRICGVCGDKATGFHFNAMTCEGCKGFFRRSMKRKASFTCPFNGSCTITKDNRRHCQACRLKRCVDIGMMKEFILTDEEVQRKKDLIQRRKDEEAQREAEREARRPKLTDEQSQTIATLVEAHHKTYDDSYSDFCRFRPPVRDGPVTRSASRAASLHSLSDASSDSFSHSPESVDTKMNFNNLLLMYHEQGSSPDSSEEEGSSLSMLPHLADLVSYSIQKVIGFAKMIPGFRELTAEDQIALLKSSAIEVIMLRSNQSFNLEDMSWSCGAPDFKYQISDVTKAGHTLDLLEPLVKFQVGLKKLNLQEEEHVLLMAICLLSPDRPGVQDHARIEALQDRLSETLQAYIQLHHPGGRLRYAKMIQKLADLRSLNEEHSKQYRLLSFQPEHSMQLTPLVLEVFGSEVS
T3 sequence (P19793 1-462 partner): T1 sequence (P19793 1-462 partner)
On the procedure: as §1, §2

The target of the next assay is T4, Lamprey VDR (Petromyzon marinus, UniProt Q7ZZY9).
T4 sequence (Q7ZZY9 1-406): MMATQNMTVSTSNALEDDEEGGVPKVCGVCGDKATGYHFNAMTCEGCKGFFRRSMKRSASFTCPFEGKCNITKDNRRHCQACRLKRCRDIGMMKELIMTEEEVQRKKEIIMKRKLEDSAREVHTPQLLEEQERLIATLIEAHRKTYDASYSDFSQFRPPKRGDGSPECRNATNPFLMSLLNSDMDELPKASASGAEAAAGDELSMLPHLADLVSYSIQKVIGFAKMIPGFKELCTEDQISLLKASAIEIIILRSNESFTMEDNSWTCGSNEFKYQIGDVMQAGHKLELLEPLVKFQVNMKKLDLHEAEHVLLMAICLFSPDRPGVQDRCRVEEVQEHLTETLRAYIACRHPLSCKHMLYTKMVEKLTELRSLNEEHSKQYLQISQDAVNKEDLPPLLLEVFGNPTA
T4 sequence (P19793 1-462 partner): T1 sequence (P19793 1-462 partner)
As for the experimental part:
as §1, §2

Each structure is given as a SMILES string.

In general, Ki refers to a dissociation constant, usually derived from enzyme kinetics or from competition with a known ligand. As to `C[C@H](CCC(=O)O)[C@H]1CC[C@H]2[C@@H]3CC[C@@H]4C[C@H](O)CC[C@]4(C)[C@H]3CC[C@]12C` [LCA, 5β-cholanic acid-3α-ol], the Ki on Bichir VDR was found to be 4.2 ± 0.4 µM; at Zebrafish VDRα it was 5.5 ± 1.9 µM; at Medaka VDRβ, 7.6 ± 1.1 µM; on Lamprey VDR, 8.7 µM.
